# Measured values from US20260034119A1, “5-METHOXY-N,N-[…][…], THEIR […], AND METHODS FOR TREATMENT OF NEUROLOGICAL, […], AND SUBSTANCE USE DISORDERS” (priority 2023, published 2026).
# Residue numbers refer to the chain shown, from its start. Values joined by “and” are separate entries in the source; they are usually repeats but may differ in a detail not shown here. Equal values may be shown once. “Also recorded” adds a separate entry of the source. Read-outs that look alike come from different tables or passages of the source.
# Legend:
# 5-HT1A [1] = molecular target: T1, 5-HT1A (Homo sapiens, UniProt P08908); assay: cell-based
# 5-HT2A [2] = molecular target: T2, 5-HT2A (Homo sapiens, UniProt P28223); assay: cell-based
# T2 sequence (P28223 whole entry): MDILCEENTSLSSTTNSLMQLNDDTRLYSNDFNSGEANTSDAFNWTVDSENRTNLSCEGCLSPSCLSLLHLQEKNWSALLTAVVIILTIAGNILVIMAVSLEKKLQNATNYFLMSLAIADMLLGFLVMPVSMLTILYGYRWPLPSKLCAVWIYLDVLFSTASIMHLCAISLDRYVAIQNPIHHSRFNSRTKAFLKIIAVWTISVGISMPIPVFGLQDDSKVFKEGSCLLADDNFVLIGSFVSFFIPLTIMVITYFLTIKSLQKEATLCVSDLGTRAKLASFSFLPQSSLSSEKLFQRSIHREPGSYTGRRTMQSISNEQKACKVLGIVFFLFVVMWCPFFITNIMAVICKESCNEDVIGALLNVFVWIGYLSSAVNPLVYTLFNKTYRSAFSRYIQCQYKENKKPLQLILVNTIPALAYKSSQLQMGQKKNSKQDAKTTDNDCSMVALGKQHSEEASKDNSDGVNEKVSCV
# [3] = Microsomal stability, human liver microsomes; type: in vitro ADME; conditions: versus the DMT analogs
# Method: Microsomal incubations were carried out in 96-well plates in 5 aliquots of 30 μL each (one for each time point). Liver microsomal incubation medium comprised of phosphate buffer (100 mM, pH 7.4), MgCl2 (3.3 mM), NADPH (3 mM), glucose-6-phosphate (5.3 mM), glucose-6 phosphate dehydrogenase (0.67 units/ml) with 0.42 mg of liver microsomal protein per ml. In the control reactions the NADPH-cofactor system was substituted with phosphate buffer. Test compounds (2 μM, final solvent concentration 1.6%) were incubated with microsomes at 37° C., shaking at 100 rpm. Each reaction was performed in duplicates. Five time points over 90 minutes were analyzed. The reactions were stopped by adding 5 volumes of methanol containing internal standard to incubation aliquots, followed by protein sedimentation by centrifuging at 5500 rpm for 4 minutes. Supernatants were analyzed using the HPLC system coupled with tandem mass spectrometer. The elimination constant (kel), half-life (t1/2) and intrinsic clearance (Clint) were determined in plot of […] versus time, using linear regression analysis.
# 5-HT2A [4] = molecular target: T2, 5-HT2A; assay: cell-based; set-up: expressed in transfected cells; host or cells: HEK293-T; conditions: for Emax: read-out: 5-HT2A (IP1) Emax (%5-HT)
# human 5-HT1A = molecular target: T3, human 5-HT1A (Homo sapiens, UniProt P08908); assay: cell-based
# T3 sequence (P08908 1-422): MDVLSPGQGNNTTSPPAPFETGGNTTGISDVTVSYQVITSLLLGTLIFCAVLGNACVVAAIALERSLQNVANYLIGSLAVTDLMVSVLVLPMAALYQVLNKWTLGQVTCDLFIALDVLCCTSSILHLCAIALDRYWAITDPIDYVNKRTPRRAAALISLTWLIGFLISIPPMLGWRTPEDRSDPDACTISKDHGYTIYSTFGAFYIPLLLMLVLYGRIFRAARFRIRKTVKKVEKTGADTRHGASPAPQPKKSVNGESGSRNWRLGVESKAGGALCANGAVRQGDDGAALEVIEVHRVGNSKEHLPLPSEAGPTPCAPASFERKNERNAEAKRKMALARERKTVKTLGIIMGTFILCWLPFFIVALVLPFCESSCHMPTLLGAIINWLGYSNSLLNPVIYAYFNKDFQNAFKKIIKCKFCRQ
# C57BL/6J mice = assay: Social interaction test after chronic social defeat stress (CSDS); conditions: one s.c. administration
# 5-HT2B = 5-HT2B (Homo sapiens, UniProt P41595); assay: IP1 functional assay 5-HT2B; type: cell-based; conditions: for Emax: read-out: 5-HT2B (IP1) Emax (%5-HT), Table 3
# Chain of 5-HT2B (P41595 whole entry, species assumed): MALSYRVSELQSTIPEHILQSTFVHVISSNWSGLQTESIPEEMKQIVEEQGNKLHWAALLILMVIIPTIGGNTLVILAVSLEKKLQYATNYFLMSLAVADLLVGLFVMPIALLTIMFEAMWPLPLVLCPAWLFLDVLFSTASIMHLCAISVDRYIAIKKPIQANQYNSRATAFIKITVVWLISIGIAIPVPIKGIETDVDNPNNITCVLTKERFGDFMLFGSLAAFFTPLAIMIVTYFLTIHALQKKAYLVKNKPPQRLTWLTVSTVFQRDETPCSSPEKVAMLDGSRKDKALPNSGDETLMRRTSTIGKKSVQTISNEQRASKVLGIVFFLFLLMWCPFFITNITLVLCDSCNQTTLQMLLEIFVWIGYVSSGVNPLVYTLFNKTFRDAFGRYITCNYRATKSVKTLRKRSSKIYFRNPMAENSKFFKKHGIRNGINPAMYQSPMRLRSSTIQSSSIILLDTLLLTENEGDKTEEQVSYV
# 5-HT1A N386V = molecular target: T4, 5-HT1A N386V (Homo sapiens, UniProt P08908, N386V); assay: Gi1 BRET at mutant 5-HT1A N386V; type: cell-based
# T4 construct: expressed in transfected cells; host or cells: HEK293-T
# T4 sequence (P08908 1-422 N386V): T3 sequence (P08908 1-422) with N386V
# 5-HT2A V366N = molecular target: T5, 5-HT2A V366N (Homo sapiens, UniProt P28223, V366N); assay: Gq BRET at mutant 5-HT2A V366N; type: cell-based
# T5 construct: expressed in transfected cells; host or cells: HEK293-T
# T5 sequence (P28223 whole entry V366N): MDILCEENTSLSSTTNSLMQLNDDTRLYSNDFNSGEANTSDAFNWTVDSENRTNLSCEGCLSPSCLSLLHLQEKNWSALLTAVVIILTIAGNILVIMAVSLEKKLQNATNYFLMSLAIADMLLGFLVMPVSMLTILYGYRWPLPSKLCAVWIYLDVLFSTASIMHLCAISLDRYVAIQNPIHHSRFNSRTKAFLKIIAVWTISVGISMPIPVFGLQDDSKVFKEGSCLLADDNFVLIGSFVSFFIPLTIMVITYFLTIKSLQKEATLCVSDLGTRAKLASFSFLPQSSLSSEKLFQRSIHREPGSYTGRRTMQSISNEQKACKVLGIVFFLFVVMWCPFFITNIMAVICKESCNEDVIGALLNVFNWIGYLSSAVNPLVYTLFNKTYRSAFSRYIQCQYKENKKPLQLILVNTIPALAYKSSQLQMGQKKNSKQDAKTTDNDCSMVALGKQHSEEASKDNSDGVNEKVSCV
# 5-HT1A [5] = molecular target: T1, 5-HT1A; assay: BRET signaling assay: 5-HT1A-mediated activation of heterotrimeric Gi1 (TRUPATH, HEK293-T)
# 5-HT1A A365N = molecular target: T6, 5-HT1A A365N (Homo sapiens, UniProt P08908, A365N); assay: Gi1 BRET at mutant 5-HT1A A365N; type: cell-based
# T6 construct: expressed in transfected cells; host or cells: HEK293-T
# T6 sequence (P08908 1-422 A365N): T3 sequence (P08908 1-422) with A365N
# 5-HT2A [6] = molecular target: T2, 5-HT2A
# MAO-A = molecular target: T7, MAO-A (Homo sapiens, UniProt P21397); assay: MAO-A activity (metabolism of compound); conditions: versus the DMT analogs
# T7 sequence (P21397 1-527): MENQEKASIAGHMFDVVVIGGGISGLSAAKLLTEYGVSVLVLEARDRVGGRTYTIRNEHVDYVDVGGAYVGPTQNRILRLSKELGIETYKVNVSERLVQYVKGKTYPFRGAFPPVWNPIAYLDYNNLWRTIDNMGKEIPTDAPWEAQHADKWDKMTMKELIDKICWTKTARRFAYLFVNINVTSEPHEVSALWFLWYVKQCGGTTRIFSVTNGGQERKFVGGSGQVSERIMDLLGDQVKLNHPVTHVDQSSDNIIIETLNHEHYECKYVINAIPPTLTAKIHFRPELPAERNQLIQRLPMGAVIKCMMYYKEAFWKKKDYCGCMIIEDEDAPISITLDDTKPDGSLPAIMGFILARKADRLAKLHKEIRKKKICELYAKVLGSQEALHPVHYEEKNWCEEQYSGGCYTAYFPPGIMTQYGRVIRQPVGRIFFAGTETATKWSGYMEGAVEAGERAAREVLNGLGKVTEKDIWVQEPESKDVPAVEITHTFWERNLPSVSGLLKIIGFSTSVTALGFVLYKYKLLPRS
# [7] = Mouse plasma protein binding; type: in vitro ADME
# [8] = Human plasma protein binding; type: in vitro ADME
# [9] = EC50 (nM), Gi1 BRET, 5-HT1A A365N^6.55
SMILES,EC50 (5-HT1A [1]),EC50 (5-HT2A [2]),microsomal stability in human microsomes [3],EC50 (human 5-HT1A),"EC50 (5-HT2A [2]; EC50 (nM), Gq BRET, 5-HT2A WT)","EC50 (5-HT1A [5]; EC50 (nM), Gi1 BRET, 5-HT1A WT)",EC50 (5-HT1A A365N; [9]),also measured
"CCN(C)CCc1c[nH]c2ccc(OC)c(F)c12 [Compound 26, N-ethyl-2-(4-fluoro-5-methoxy-1H-indol-3-yl)-N-methylethan-1-amine]",1.77 nM,99.3 nM,greater stability in human microsomes versus the DMT analogs,0.316 nM,,,,"EC50 (5-HT2A [4]): 230 nM; Emax (5-HT2A [4]): 90%; general locomotion at the social interaction test (C57BL/6J mice; mice): no effects on general locomotion; corner time (anxiety-like behavior) (C57BL/6J mice; stressed mice): rescued; social interaction deficit induced by chronic social defeat stress (C57BL/6J mice; stressed mice, test 24 hr post drug, listed as 4-F, 5-MeO-MET): rescued; also recorded: rescuing the social interaction deficit; EC50 (5-HT2B): 66 nM; Emax (5-HT2B): 39%"
"COc1ccc2[nH]cc(CCN(C)C)c2c1F [Compound 25, 2-(4-fluoro-5-methoxy-1H-indol-3-yl)-N,N-dimethylethane-1-amine]",,86.5 nM,,0.186 nM,86.5 nM,,,EC50 (5-HT1A N386V): 3.71 nM; EC50 (5-HT2A V366N): 392 nM; Efficacy as %5HT (SEM) 5-HT1A BRET Gi1 (5-HT1A [5]): 103.5 1.59) %5HT; increase in signaling potency at 5-HT1A (5-HT1A [5]): 14 fold; EC50 (5-HT1A [5]; EC50 (nM)): 1.77 nM; EC50 (5-HT1A [5]; EC50 (nM) 5-HT1A BRET Gi1): 1.77 nM; EC50 (5-HT1A A365N): 20.1 nM; decrease in potency at 5-HT2A (5-HT2A [6]; relative to 5-MeO-DMT): 3 fold
"COc1ccc2[nH]cc(CCN3CCCC3)c2c1 [Compound 18, 5-methoxy-N,N-pyrrolidinyl-tryptamine]",,,,,81.5 nM,2.13 nM,28.9 nM,"EC50 (5-HT1A N386V): 24.9 nM; EC50 (5-HT2A V366N): 55.6 nM; selectivity for 5-HT1A>5-HT2A (5-HT1A [5]; 5-HT1A Gi BRET vs 5-HT2A Gq BRET): > 38 fold; EC50 (5-HT1A [5]; Gi BRET EC50): 2.1 nM; increase in 5-HT1A>5-HT2A selectivity (5-HT1A [5]; cyclization of the amine moiety, relative to 5-MeO-DMT): ~38 fold"
"CCN(CC)C(=O)[C@@H]1C=C2c3cccc4[nH]cc(c34)C[C@H]2N(C)C1 [LSD, reference compound]",,,,,,,,"effect of 5-HT2A V366N mutation on potency and efficacy (5-HT2A V366N; mutant vs wildtype 5-HT2A): increase in signaling efficacy; Efficacy as %5HT 5-HT2A BRET Gq (5-HT2A [6]; Table 6, commercial ligands): 82.4 %5HT"
"CCCN(C)CCc1c[nH]c2ccc(OC)c(F)c12 [Compound 28, N-(2-(4-fluoro-5-methoxy-1H-indol-3-yl)ethyl)-N-methylpropan-1-amine]",3.06 nM,115 nM,greater stability in human microsomes versus the DMT analogs,0.417 nM,,,,MAO A metabolism (MAO-A): markedly slower MAO A metabolism versus the DMT analogs; EC50 (5-HT2A [4]): 250 nM; Emax (5-HT2A [4]): 106%; EC50 (5-HT2B): 72 nM; Emax (5-HT2B): 47%
"CSc1ccc2[nH]cc(CCN(C)C)c2c1 [Compound 67, N,N-dimethyl-2-(5-(methylthio)-1H-indol-3-yl)ethan-1-amine]",11.7 nM,30.1 nM,,2.01 nM,30.1 nM,11.7 nM,30.5 nM,"EC50 (5-HT1A A365N; pEC50, Gi1 BRET, 5-HT1A A365N^6.55): 30.2 nM"
"CSc1ccc2[nH]cc(CCN3CCCC3)c2c1 [Compound 69, 5-(methylthio)-3-(2-(pyrrolidin-1-yl)ethyl)-1H-indole]",1.05 nM,175 nM,,0.51 nM and 0.501 nM,175 nM,1.05 nM,5.08 nM,
"CCCN(CC)CCc1c[nH]c2ccc(OC)c(F)c12 [Compound 29, N-ethyl-(2-(4-fluoro-5-methoxy-1H-indol-3-yl)ethyl)propan-1-amine]",0.95 nM,155 nM,greater stability in human microsomes versus the DMT analogs,0.151 nM,,,,
"CN(C)CCc1c[nH]c2ccc(O)c(F)c12 [Compound 40, 3-(2-(dimethylamino)ethyl)-4-fluoro-1H-indol-5-ol]",1.13 nM,7.46 nM,,0.251 nM,7.46 nM,1.13 nM,5.68 nM,
"C=CCN(C)CCc1c[nH]c2ccc(OC)c(F)c12 [Compound 34, N-(2-(4-fluoro-5-methoxy-1H-indol-3-yl)ethyl)-N-methylprop-2-en-1-amine]",8.41 nM,156 nM,greater stability in human microsomes versus the DMT analogs,2.57 nM,,,,
CC(=O)CC(c1ccccc1)c1c(O)c2ccccc2oc1=O (stereo not drawn) [Warfarin],,,,,,,,% Recovery [7]: 90.9%; % Unbound [7]: 6.4%; fu [7]: 0.064; % Compound remaining at 4 h ([7]; 4 h): 103.3%; % Recovery [8]: 108.1%; % Compound remaining at 4 h ([8]; 4 h): 108.8%
"C=CCN(C)CCc1c[nH]c2ccc(OC)c(F)c12 [4-F, 5-MeO MALT]",,,,,,,,MAO A metabolism (MAO-A): markedly slower MAO A metabolism versus the DMT analogs
